{
  "source": "patent US7514406B2",
  "about": "“Methods for inhibiting deacetylase activity” (Fred Hutchinson Cancer Research Center, priority 2001, dated 2009)",
  "key": {"[1]": {"system": "mutant SIR2 (GAL-SIR2-Y298N or GAL-SIR2-H286Q)", "assay": "HDA assay with drug resistant mutant Sir2p", "assay_type": "biochemical, S. cerevisiae", "settings": "in vitro, equivalent amounts of protein", "quoted_text": "Briefly, histone H4 was chemically acetylated using the HDAC Assay Kit (Upstate Biotechnology). […] For the histone deacetylase assays, 50 μg of yeast whole-cell protein extract was incubated with [^3H] acetylated histone H4-peptide (40,000 cpm) with or without 500 μM NAD^+ in a 100 μl reaction. The buffer contained 150 mM NaCl, 25 mM sodium phosphate pH 7.4 and 1 mM DTT. Reactions were incubated at 30° C. for 16 hours and were stopped by the addition of 25 μl of 1 N HCl and 0.15 N acetic acid. Released [^3H] acetate was extracted with 400 μl of ethyl acetate.\nTo obtain further insight into the molecular mechanism by which S I inhibited deacetylase activity of Sir2p, mutant forms of Sir2p were generated that were resistant to the compound. […] Plasmid DNA was recovered from the individual colonies and was retransformed into the test strain to assure that drug resistance was conferred by SIR2-containing plasmid."}, "[2]": {"system": "mammalian cells", "assay": "Toxicity assays using S1 and a variety of DNA damaging agents", "assay_type": "cell-based", "text": "(1996) Science 272, 408-11)). In addition to histones, many other proteins are regulated by acetylation, including pRb, E2F and p53 proteins (Chan, H. M., et al. (2001) Nat. Cell Biol. 3,667-74; Martinez-Balbas, M. A., et al. (2000) EMBO J. 19,662-71; and Luo, J., et al. (2000) Nature 408, 377-81). Two recent reports (Vaziri, H., et al. (2001) Cell 107, 149-159 and Luo, J., et al. (2001) Cell 107, 137-148) implicate deacetylation of p53, by Sir2, in down-regulation of transcriptional and proapoptotic activities of p53 in response to DNA damage. […] P. (2001) Oncogene 20, 2988-90 and Tycko, […]. Clin. Invest 105, 245-6)."}, "[3]": {"system": "wild type BY4741 cells vs sir2, hst1, hst2, hst3, hst4 deletion mutants", "assay": "Whole genome DNA microarray transcriptional profiling", "assay_type": "cell-based, S. cerevisiae", "text": "In addition to SIR2, the S. cerevisiae genome encodes four SIR2 homologues: HST1-4 (Homologue of Sir Two) (Brachmann, C. B., et al. (1995) Genes Dev. 9, 2888-902). Hst2p is located in the cytoplasm and is responsible for virtually all the NAD^+-dependent deacetylase activity detected in a cellular lysate (Smith, J. S., et al., (2000) Proc. Natl. Acad. Sci. USA 97, 6658-63). Its relevant biological substrate is unknown. Hst1p is required for transcriptional repression of meiotic genes (Xie, J., et al. (1999) EMBO J. 18, 6448-54), whereas little is known about the cellular function of Hst3p or Hst4p.\nStrains for the DNA array experiments for the whole genome analysis were obtained from Research Genetics (wild type BY4741: MATa his3, leu2, met15, […] or isogenic sir2, hst1, hst2, hst3 and hst4 deletion mutants). Several colonies from fresh cultures were inoculated into synthetic complete medium with 2% glucose, grown overnight at 30° C., diluted to 0.5−1×10^6 cell/ml and grown for an additional 6-9 hours until reaching a density of 0.5−1×10^7 cells/ml. […] Total RNA was extracted using the hot acid phenol method. Microarray construction and hybridization protocols were modified from those described elsewhere (DeRisi, J. L. et al. (1997) Science 278, 680-6). Briefly, yeast microarrays were constructed employing a set of ˜6200 or specific PCR primer pairs (Research Genetics, Huntsville, Ala.), which were used to amplify each open reading frame (orf) of the yeast genome. Individual PCR products were verified as unique via gel electrophoresis and purified using ARRAYIT 96-well PCR purification kits (TeleChem International, Sunnyvale, Calif.). Purified PCR products were mechanically “spotted” in 3×SSC (450 mM sodium chloride and 45 mM sodium citrate, pH 7.0) onto poly-lysine coated microscope slides using an OMNIGRID high-precision robotic gridder (GeneMachines, San Carlo, Calif.). […]"}, "[4]": {"system": "HMLα locus in MATa cells", "assay": "Pheromone response assay, silencing at the HMLα locus in MATa cells", "assay_type": "cell-based, S. cerevisiae", "text": "When haploid MATa cells are exposed to the mating pheromone […], they arrest in G1 phase of the cell cycle. Loss of silencing at the HMLα locus in MATa cells results in expression of a mating type genes (Marsh, L., et al. (1991) Annu. Rev. Cell Biol. 7, 699-728). The coexpression of α and a genes creates a pseudo-diploid state: cells are immune to […] and unable to mate."}, "[5]": {"system": "silent HML locus in G1-arrested MATa cells", "assay": "Maintenance of silent state in G1-arrested MATa cells", "assay_type": "cell-based, S. cerevisiae", "text": "This was presumably due to loss of mating competence, a consequence of expression of the α2 gene from the “silent” HML locus. To test this idea more directly, a MATa strain with a single G1 cyclin gene (CLN3), which is under control of a galactose-inducible promoter (Cross, F. R. (1990) Mol. Cell Biol. 10, 6482-90), was arrested in G1 by replacing galactose with glucose in the media."}, "[6]": {"system": "TRP1 gene integrated at the silent HMR locus", "assay": "TRP1 reporter at silent HMR locus growth assay", "assay_type": "cell-based, S. cerevisiae", "settings": "tryptophan-deficient media, 36-48 h", "protocol": "A secondary screening of the eleven identified compounds was carried out using a TRP1 gene which utilized a yeast strain with a TRP1 gene integrated at the silent HMR locus cannot grow in media lacking tryptophan (Buck, S. W. & Shore, D. (1995) Genes Dev. 9, 370-84). Using the method essentially described above, wells in a 96-well plate were inoculated with 150 μL of yeast culture (a yeast strain with a TRP1 gene integrated at the silent HMR locus), containing 1×10^5 cell/ml in tryptophan-deficient media. The eleven compounds dissolved in DMSO were added to the cells and the cultures are incubated for 36-48 h and growth in individual wells is tested by optical density (OD660) measurements and visual inspection."}, "[7]": {"system": "silenced telomeric URA3 gene", "assay": "URA3 telomeric silencing assay (cell-based screen for Sir2p inhibitors)", "design": "species or system S. cerevisiae", "protocol": "In order to find inhibitors of the deacetylase activity of Sir2p, screening was carried out to identify compounds that perturbed silencing at each of the loci at which Sir2p is known to act in S. cerevisiae: telomeres, HML, HMR, and the rDNA. The cell-based positive selection screen was designed so that inhibition of Sir2p activity permitted normal cell growth in order to avoid identifying cytotoxic compounds. Briefly, a yeast strain containing a marker gene, such as a nutritional marker, in close proximity to a telomeres in S. cerevisiae such that it is repressed by telomeric chromatin, is exposed to a test compound or set of test compounds dissolved in DMSO and cultured under suitable conditions and in media supplemented to permit growth only under conditions in which the marker gene is expressed. After a suitable interval, the optical density of the culture is measured. An increase in optical density corresponds to growth indicating a perturbation of silencing of the marker gene. All strains in this and other examples herein can be grown in synthetic complete media (SC) or selective synthetic drop-out media containing 2% glucose.\nInitial screening for compounds that effect silencing was carried out using a URA3 assay. […] Eleven compounds identified in this primary screen were analyzed further to determine whether silencing at the HML and HMR loci was also affected."}, "[8]": {"system": "primary human fibroblasts (HFF)", "assay": "Sensitization to etoposide, 3H-thymidine incorporation viability", "assay_type": "cell-based", "settings": "S1 25, 50 and 100 μM with etoposide, 72 hours", "protocol": "(§1) To test whether S1 could sensitize cells to DNA damage, mammalian cells were exposed to etoposide, a DNA damaging agent, in the presence and absence of S1. […] Viability of cells was assessed with 3H-thymidine incorporation."}, "[9]": {"system": "Rat1a cells", "assay": "Sensitization to etoposide, 3H-thymidine incorporation viability", "assay_type": "cell-based, rat", "settings": "S1 25, 50 and 100 μM with etoposide, 72 hours", "protocol": "as §1"}, "[10]": {"system": "rDNA locus", "assay": "Recombination at the rDNA locus (loss of ADE2 integrated into the rDNA array)", "assay_type": "cell-based, S. cerevisiae", "protocol": "Silencing within the rDNA locus is manifested in two ways. It can weakly repress expression of an inserted reporter gene (Smith, J. S. & Boeke, J. D. (1997) Genes Dev. 11, 241-54), and it reduces recombination between tandem copies of the ribosomal RNA genes (Gottlieb, S. & Esposito, R. E. (1989) Cell 56, 771-6). Recombination was analyzed by measuring the loss rate of an ADE2 gene integrated into the rDNA array essentially as described by Kaeberlein, M., et al. (1999 Genes Dev. 13, 2570-80). […] After six hours, the cultures were plated onto rich medium and the loss of expression of the ADE2 gene was measured and scored by the development of sectored red colonies. […] Treatment with SI increased recombination rate at the rDNA locus seven-fold, which is similar to rates observed in a sir2 mutant (FIG. 1D)."}, "[11]": {"settings": "50 μg/ml cycloheximide 40 minutes prior to S1"}},
  "data": [
    {"smiles": "O=C1CCc2c(ccc3ccccc23)O1", "note": "[S1, 1,2-dihydro-3H-naphtho[2,1-b]pyran-3-one]", "values": [
      {"measurement": "inhibitory effect on histone deacetylase activity of mutant proteins vs wild type Sir2p", "setting": "[1]", "value": "increased resistance"},
      {"measurement": "sensitization to DNA damaging agents", "setting": "[2]", "value": "sensitizes mammalian cells"},
      {"measurement": "overlap with HST2, HST3 or HST4 regulated genes", "setting": "[3]", "value": "no overlap"},
      {"measurement": "transcriptional down-regulation by S1 in the absence of new protein synthesis", "setting": "[3]; [11]", "value": "virtually all transcriptional down-regulation was abolished"},
      {"measurement": "upregulation of genes by S1 with cycloheximide", "setting": "[3]; [11]", "value": "did not affect"},
      {"measurement": "silencing at HML", "setting": "[4]", "value": "disrupted silencing at HML"},
      {"measurement": "mating of MATa cells", "setting": "[4]; in the presence of S1", "value": "defective for mating"},
      {"measurement": "responsiveness of MATa cells to α factor", "setting": "[4]; in the presence of S1", "value": "lost responsiveness to α factor"},
      {"measurement": "α2 mRNA expression from HML in G1-arrested cells", "setting": "[5]; CLN3 galactose-inducible strain arrested by glucose, DMSO control", "value": "detected only in the S1-treated cells"},
      {"measurement": "cell cycle progression of α factor G1-arrested MATa cells", "setting": "[5]; untreated cells remained arrested in G1", "value": "progressed through the cell cycle"},
      {"measurement": "growth in media lacking tryptophan (loss of silencing at HMR)", "setting": "[6]", "value": "enabled cells to grow in media lacking tryptophan"},
      {"measurement": "disruption of silencing in drug resistant SIR2 mutants vs wild type strains", "setting": "[7]; SIR2-H286Q, SIR2-L287Q, SIR2-Y298N", "value": "required higher concentrations"},
      {"measurement": "silencing at telomeric loci", "setting": "[7]; URA3 telomeric marker, uracil-deficient media, 0.5, 5 and 50 μM, 36-48 h", "value": "disrupted silencing"},
      {"measurement": "sensitization to etoposide", "setting": "[8]", "value": "dose-dependent sensitization"},
      {"measurement": "sensitization to etoposide", "setting": "[9]", "value": "dose-dependent sensitization"},
      {"measurement": "silencing of a reporter gene within the rDNA locus", "setting": "[10]", "value": "disrupted silencing"},
      {"measurement": "increase of recombination rate at the rDNA locus", "setting": "[10]; 15 μM, six hours, similar to rates in a sir2 mutant", "value": "seven-fold"},
      {"measurement": "effect on rDNA recombination in sir2 cells", "setting": "[10]; sir2 cells treated with the compound", "value": "no effect"}
    ]}
  ]
}
